Laboratory results from US20090143361A1, “Pyrido[3,2-E]Pyrazines, Process For Preparing The Same, And Their Use As Inhibitors Of Phosphodiesterase 10” (ELBION GMBH, priority 2007, published 2009).
Read-outs that look alike come from different tables or passages of the source. Blank lines part the entries; values can stand above or below the compound they belong to.

Columns and labels:
[1] = molecular target: T1, human recombinant PDE10A (Homo sapiens, UniProt Q9Y233); test: Inhibition of PDE10, human recombinant PDE10A ([3H]-cAMP SPA); assay type: biochemical; details: Table 7; read-out: Human PDE10 (IC50 nM)
T1 construct: made in house; host or cells: SF21 insect cells (baculovirus)
T1 sequence (Q9Y233 1-779 isoform Q9Y233-1): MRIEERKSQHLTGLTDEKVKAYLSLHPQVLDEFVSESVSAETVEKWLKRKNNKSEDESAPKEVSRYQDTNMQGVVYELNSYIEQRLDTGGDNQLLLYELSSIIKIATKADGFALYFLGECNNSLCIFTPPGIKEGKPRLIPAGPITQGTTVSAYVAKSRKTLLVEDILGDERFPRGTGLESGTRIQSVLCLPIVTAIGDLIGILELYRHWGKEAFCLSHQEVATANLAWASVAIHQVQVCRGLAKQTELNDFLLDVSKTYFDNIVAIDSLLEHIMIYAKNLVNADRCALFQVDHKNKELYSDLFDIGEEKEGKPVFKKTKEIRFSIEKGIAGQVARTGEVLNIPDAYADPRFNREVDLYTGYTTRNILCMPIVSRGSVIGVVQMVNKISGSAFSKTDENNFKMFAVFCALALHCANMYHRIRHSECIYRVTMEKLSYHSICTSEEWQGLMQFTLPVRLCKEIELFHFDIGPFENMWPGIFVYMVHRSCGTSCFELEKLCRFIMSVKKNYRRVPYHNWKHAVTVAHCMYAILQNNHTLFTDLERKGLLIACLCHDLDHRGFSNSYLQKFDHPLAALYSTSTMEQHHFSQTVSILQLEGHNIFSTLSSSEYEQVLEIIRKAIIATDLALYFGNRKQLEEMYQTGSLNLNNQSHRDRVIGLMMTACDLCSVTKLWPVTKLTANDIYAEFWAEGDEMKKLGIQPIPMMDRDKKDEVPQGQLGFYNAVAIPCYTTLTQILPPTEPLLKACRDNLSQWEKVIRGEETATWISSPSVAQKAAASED
Method: The gene was than inserted into a baculovirus vector, ligated with the baculovirus DNA. The enzyme-protein was expressed in SF21-cells. The enzyme was isolated from these cells by harvesting the cells by a centrifugation at 200 g to collect the cells. The cells were resuspended in 50 mM Tris-HCl/5 mM MgCl2 buffer (pH=7.4) and lysed by a sonication of the cells. The cytosolic PDE10A was obtained by a centrifugation at 48000 g for 1 h in the supernatant and stored at −70° C. PDE10 activity was determined in a one step procedure in microtiterplates. […] Nonspecific activity was tested without the enzyme. The reaction was initiated by addition of the substrate solution and was carried out at 37° C. for 30 minutes. Enzymatic activity was stopped by addition of 25 μl YSi-SPA-beads (Amersham-Pharmacia). One hour later the mixture was measured in a liquid scintillation counter for microtiterplates (Microbeta Trilux). To pipette the incubation mixture a robot Biomek (Fa. Beckman) is used. […] For determination of IC50 values the Hill-plot, 2-parameter-model, was used.

[2] = molecular target: PDE10 from pig striatum (Sus scrofa, UniProt A0A287B941); test: Inhibition of PDE10 from pig striatum ([3H]-cAMP SPA); assay type: biochemical
[3] = molecular target: PDE10 from guinea pig striatum (Cavia porcellus, UniProt A0A286XN47); test: Inhibition of PDE10 from guinea pig striatum ([3H]-cAMP SPA); assay type: biochemical; details: Method B
PDE10 from guinea pig striatum, sequence (A0A286XN47 1-773): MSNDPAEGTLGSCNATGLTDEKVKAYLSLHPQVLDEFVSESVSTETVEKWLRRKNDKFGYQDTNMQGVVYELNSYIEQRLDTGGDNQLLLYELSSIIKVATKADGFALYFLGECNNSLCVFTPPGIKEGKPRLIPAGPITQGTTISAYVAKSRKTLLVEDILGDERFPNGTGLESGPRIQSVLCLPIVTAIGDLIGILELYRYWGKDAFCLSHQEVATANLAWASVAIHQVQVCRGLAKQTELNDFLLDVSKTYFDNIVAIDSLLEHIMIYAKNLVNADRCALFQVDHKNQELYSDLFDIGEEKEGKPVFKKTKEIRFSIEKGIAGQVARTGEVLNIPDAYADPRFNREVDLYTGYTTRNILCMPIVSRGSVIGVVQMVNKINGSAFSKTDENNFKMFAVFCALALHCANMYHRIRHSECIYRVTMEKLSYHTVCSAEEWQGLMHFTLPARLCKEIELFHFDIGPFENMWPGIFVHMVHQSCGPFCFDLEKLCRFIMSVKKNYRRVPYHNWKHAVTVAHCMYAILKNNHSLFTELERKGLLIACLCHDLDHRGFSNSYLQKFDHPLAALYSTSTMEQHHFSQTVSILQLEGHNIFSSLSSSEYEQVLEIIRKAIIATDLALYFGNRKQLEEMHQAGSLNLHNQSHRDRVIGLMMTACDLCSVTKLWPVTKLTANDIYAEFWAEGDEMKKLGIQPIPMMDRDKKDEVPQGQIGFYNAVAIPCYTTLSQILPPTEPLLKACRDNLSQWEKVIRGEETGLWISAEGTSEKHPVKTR
Method: (§1) The phosphodiesterase isoenzyme 10 (PDE10) activity was determined in preparations of rat, pig and guinea pig striatum respectively. Striatum from male Wistar rats (180-200 g), male hybrid pigs (150 kg) and male guinea pigs (CRL (HA), 500 g) respectively were collected and frozen at −70° C. At the day of preparation 0.5 g striatum was homogenized in 10 ml 50 mM Tris/Mg-buffer at 4° C. and centrifuged for one hour at 100000 g. The supernatant is called the cytosolic fraction and was removed and stored on ice. The pellet was resuspended in the same buffer, but containing 1% Triton and incubated for 45 min at 4° C. Both fractions were independently applied onto a 5 ml Hi Trap™ QHP column at the Akta-FPLC. After washing the columns the bound PDE protein was eluted with an increasing sodium chloride gradient (0 mM-500 mM sodium chloride) in 50 mM Tris/Mg-buffer at 4° C. for the cytosolic fraction and in the presence of 1% Triton for the membrane fraction. […] The fractions with PDE10-activity were pooled and frozen in aliquots until use at −20° C. PDE10 activity was determined in a one step procedure in microtiterplates. […] Nonspecific activity was tested without the enzyme. […] One hour later the mixture was measured in a liquid scintillation counter for microtiterplates (Microbeta Trilux). […]

[4] = rats; Kostowski et al. 1976; cited from earlier work
[5] = rats; Kostowski et al. 1976; cited from earlier work; remark: listed apart in the source
[6] = rats; Kostowski et al. 1976; cited from earlier work; remark: listed apart in the source
[7] = molecular target: T2, PDE10 from rat striatum (Rattus norvegicus, UniProt Q9QYJ6); test: Inhibition of PDE10 from rat striatum ([3H]-cAMP SPA); assay type: biochemical; details: Method B, read-out: Km-value for the substrate
T2 construct: from tissue; host or cells: rat (Wistar) striatum, FPLC fractions
T2 sequence (Q9QYJ6 1-794): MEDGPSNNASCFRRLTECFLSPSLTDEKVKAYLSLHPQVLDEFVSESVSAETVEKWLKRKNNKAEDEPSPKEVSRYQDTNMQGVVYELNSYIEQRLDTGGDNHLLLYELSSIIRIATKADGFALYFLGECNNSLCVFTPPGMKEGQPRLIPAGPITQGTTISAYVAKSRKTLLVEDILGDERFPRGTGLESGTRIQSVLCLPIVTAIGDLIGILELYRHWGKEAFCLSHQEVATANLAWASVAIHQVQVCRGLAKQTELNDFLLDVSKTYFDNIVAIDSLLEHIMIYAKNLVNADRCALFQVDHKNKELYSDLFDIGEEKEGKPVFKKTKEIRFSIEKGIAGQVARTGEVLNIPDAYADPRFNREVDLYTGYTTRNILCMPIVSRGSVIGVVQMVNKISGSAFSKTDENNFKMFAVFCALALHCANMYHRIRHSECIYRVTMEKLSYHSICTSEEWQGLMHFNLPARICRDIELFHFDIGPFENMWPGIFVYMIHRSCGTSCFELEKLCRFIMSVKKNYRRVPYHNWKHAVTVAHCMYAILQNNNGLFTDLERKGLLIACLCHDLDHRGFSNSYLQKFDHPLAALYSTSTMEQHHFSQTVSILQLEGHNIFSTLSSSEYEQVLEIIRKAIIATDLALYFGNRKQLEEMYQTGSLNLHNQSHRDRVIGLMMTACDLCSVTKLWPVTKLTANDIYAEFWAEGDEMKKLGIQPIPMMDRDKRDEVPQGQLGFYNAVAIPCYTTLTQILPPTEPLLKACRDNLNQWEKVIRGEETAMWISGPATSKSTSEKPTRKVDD
Method: as §1

[8] = molecular target: Phosphodiesterase (PDE) 10A (Homo sapiens, UniProt Q9Y233); details: Soderling et al. 1999; cited from earlier work
Phosphodiesterase (PDE) 10A, sequence (Q9Y233 whole entry): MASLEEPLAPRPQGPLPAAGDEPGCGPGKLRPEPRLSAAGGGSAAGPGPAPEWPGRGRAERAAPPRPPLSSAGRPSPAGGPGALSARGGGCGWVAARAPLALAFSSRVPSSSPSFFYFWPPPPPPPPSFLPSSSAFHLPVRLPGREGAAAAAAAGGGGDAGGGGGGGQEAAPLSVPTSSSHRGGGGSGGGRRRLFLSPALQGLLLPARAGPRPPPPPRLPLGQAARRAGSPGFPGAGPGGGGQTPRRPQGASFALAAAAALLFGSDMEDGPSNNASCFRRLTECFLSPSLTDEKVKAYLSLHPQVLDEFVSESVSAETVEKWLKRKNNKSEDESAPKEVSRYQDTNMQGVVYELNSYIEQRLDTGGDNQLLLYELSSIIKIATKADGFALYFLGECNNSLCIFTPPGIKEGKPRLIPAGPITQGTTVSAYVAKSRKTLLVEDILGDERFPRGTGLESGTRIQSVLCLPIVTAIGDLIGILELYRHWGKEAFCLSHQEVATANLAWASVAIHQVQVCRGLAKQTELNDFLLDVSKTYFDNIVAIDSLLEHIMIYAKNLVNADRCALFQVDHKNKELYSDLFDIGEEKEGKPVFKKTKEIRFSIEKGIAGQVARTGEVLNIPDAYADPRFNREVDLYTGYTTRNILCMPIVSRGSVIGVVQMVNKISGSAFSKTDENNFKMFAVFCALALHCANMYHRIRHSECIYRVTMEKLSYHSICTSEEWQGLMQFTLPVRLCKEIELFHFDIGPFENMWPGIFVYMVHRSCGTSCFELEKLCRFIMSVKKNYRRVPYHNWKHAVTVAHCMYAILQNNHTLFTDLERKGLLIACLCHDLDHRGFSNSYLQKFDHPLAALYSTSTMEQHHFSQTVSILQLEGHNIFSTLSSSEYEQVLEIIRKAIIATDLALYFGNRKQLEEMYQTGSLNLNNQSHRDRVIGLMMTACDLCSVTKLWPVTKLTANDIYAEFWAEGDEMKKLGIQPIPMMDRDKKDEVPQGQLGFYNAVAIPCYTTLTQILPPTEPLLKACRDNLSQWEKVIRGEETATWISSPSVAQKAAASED

[9] = Table 7, read-out: PDE10 pig IC50

IC50 [1]: 10 to 100 nM
IC50 [2, 9]: < 0.01 µM
Structure (SMILES): COc1ccc2nc(C)c3c(C)nc(-c4cc(C#N)ccc4Cl)n3c2n1 [Example 25, 4-Chloro-3-(2-methoxy-6,7-dimethylimidazo[1,5-a]pyrido[3,2-e]pyrazin-9-yl)benzonitrile]

IC50 [1]: 10 to 100 nM
IC50 [2, 9]: 0.01 to 0.1 µM
Structure (SMILES): CCOc1ccc(Cl)c(-c2nc(C)c3c(C)nc4ccc(OC)nc4n23)c1 [Example 26, 9-(2-Chloro-5-ethoxyphenyl)-2-methoxy-6,7-dimethylimidazo[1,5-a]pyrido[3,2-e]pyrazine]

Structure (SMILES): COc1ccc(Cc2nccc3cc(OC)c(OC)cc23)cc1OC [Papaverine, papaverine]
IC50 ([2]; Method A, PDE10 from striatum of pig): 0.103 µM
IC50 ([2]; Method B, PDE10 from striatum of pig, read-out: IC50): 0.11 µM
IC50 [3]: 0.077 µM
apomorphine-induced stereotypes [4]: reduces apomorphine-induced stereotypes in rats
haloperidol-induced catalepsy [5]: increases haloperidol-induced catalepsy in rats
dopamine concentration in rat brain [6]: reducing dopamine concentration in rat brain

Km ([2]; Method B, pig striatum, read-out: Km-value for the substrate): 2.2 µM
Km [7]: 1.8 µM
Structure (SMILES): Nc1nc2c(ncn2[C@@H]2O[C@@H]3COP(=O)(O)O[C@H]3[C@H]2O)c(=O)[nH]1 [cGMP]
Km [8]: 3 µM
